Source: patent US6083929A, “Extended type 1 chain glycosphingolipids as tumor-associated antigens” (The Biomembrane Institute, priority 1992, dated 2000)
“Also recorded” adds a separate entry of the source. Where two headings read alike, the source gives them in different places.

Legend:
[1] = test system: MAb ST-421; experiment: TLC immunostaining of GSL with MAb ST-421; format: binding
Experimental: (§1) MAb ST-421 was established as previously described (Watanabe et al., Jpn. J. Cancer Res. (Gann) 76:43-52, 1985). MAb MNH-1, which defines type 1 chain N-acetyllactosamine (Galβ1→3GlcNAcβ1→R), was prepared in laboratory of the inventors; MAb 1B2, which defines type 2 chain N-acetyllactosamine (Galβ1→4GlcNAcβ1→R), was established as previously described (Young et al., J. Biol. Chem. 256:10967-10972, 1981). Anti-Le^a MAb was obtained from Chembiomed Ltd. (Edmonton, Alberta, Canada). […] HPTLC immunostaining was performed using Whatman HPTLC plates (HP-KF) by a modified version (Kannagi et al., J. Biol. Chem. 257:4438-4442, 1982; Kannagi et al., J. Biol. Chem. 257:14865-14874, 1982) of the method originally described by Magnani et al. (Magnani et al., Anal. Biochem. 109:399-402, 1980).
Extended sialyl-Le^a on the SLe^a -Le^a structure was verified by enzymatic degradation with sialidase to yield the same compournd as Le^a -Le^a as verified by thin layer chromatography as well as immunostaining with monoclonal antibody ST-421.

[2] = test system: MAb IMH2; experiment: TLC immunostaining / solid-phase ELISA reactivity of MAb IMH2 with GSL antigens; parameters: species or system mouse; settings: TLC immunostaining / antibody binding on solid-phase antigen, IMH2 5 μg/ml
Experimental: FIG. 8 graphically illustrates the reactivity of MAb IMH2 with various glycosphingolipids (GSLs). Serial double dilutions of various GSL antigens were added to 96-well flat-bottom assay plates (Probind plate, Falcon) in ethanol and dried. Initial concentration of GSL added to the first well was 100 ng/well. MAb binding assay was performed by ELISA as described below. Abscissa, reciprocal of antigen dilution. Ordinate, optical density reading at 490 nm. Paragloboside is abbreviated as "PG". Panel A: reactivity of type 1 chain GSLS. .circle-solid., Le^b /Le^a. .smallcircle., Le^b hexasaccharide (IV^2 FucIII^4 FucLc4). Δ, Le^a /Le^a. .quadrature. […] Panel B: reactivity of type 2 chain GSLs. .circle-solid., Le^y /Le^x (VI^2 FucV^3 FucIII^3 FucnLc6). .smallcircle., Le^y hexasaccharide ceramide (IV^2 FucIII^3 FucnLc4). Δ, Le^x /Le^x (V^3 FucIII^3 FucnLc6). .quadrature. (all of the following had similar reactivity), H1 type 2 chain (IV^2 nLc4); H2 type 2 chain (IV^2 FucnLc6); PG (nLc4); Le^x (III^3 FucnLc4). When GSL antigens were mixed with cholesterol and phosphatidylcholine in a molar ratio of 1:5:3 in ethanol and analyzed as above, the relative degrees of reactivity were essentially the same as shown in the figure.
The binding specificity of MAb IMH2 was tested by thin-layer chromatography immunostaining of various GSL antigens by the method previously described by Magnani et al. (Anal. Biochem. 109:399-402, 1980), and modified by Kannagi et al. (Cancer Res. 43:4997-5005, 1983). IMH2 reactivity was also determined by antibody binding on solid-phase antigen as follows. Each GSL antigen, dissolved in ethanol (100 ng/50 μl), was placed in a well, serially diluted with ethanol to 0.1 ng/50 μl per well in a flat-bottom 48-well plate (Falcon, Becton-Dickinson, Lincoln Park, N.J.), and dried. The dried antigen in each well was then incubated with 1% bovine serum albumin in PBS for 1 hr at room temperature, followed by reaction with IMH2 (5 μg/ml) for 18 hr at 4° C. Each well was washed with PBS, followed by incubation with biotinylated second antibody and avidin-peroxidase conjugate as prepared in the ELISA assay kit. The orange color developed in each well was read by automated "ELISA reader" (EL312 Biokinetics Reader, Biotek Instruments, Winooski, Vt.), and optical density at […] for each well was recorded.

[3] = test system: anti-Le^y MAb AH6; experiment: Reactivity of GSL with anti-Le^y MAb AH6; format: binding
Experimental: as §1

[4] = test system: anti-Le^b MAbs; experiment: Reactivity of GSL with anti-Le^b MAbs; format: binding
Experimental: as §1

[5] = test system: MAb MNH-1; experiment: TLC immunostaining with MAb MNH-1; format: binding; settings: TLC immunostaining after enzymatic degradation of dimeric Le^a
Experimental: as §1
(§2) Enzymatic degradation of 1 mg dimeric Le^a was performed by sequential hydrolysis with 0.5 units of α-fucosidase (bovine kidney), 0.5 units of β-galactosidase (Cackbean), and 0.5 units of β-N-acetylglucosaminidase (bovine epididymis) (Sigma Chemical Co., St. Louis, Mo.). All reactions were carried out in 0.2 M sodium citrate (pH 4.5) for 4 hr at 37° C. in a water bath with shaking. Purification of each degradative product was performed by preparative HPTLC.
(§3) TLC immunostaining of the purified antigen component with various MAbs was performed before and after successive enzymatic degradation. […] Bands a and b are therefore assumed to be Lc6 (Table III, structure 6) and III^4 FucLc6 (structure 13), respectively, based on their reactivity with MAbs and on further enzymatic degradation patterns.

[6] = test system: MAb 1B2; experiment: TLC immunostaining with MAb 1B2; format: binding; settings: TLC immunostaining after enzymatic degradation of dimeric Le^a
Experimental: as §1, §2, §3

[7] = test system: MAb ST-421; experiment: Solid-phase radioimmunoassay of glycolipids with MAb NCC-ST-421; format: binding; settings: ST421 10 μg/ml, initial glycolipid 100 ng
Experimental: FIG. 7 graphically illustrates the reactivity of dimeric Le^a, Le^a -Le^x and related glycolipids with MAb NCC-ST-421. Solid-phase radioimmunoassay with MAb ST-421 using serially-diluted dimeric Le^a, Le^a /Le^x, and various structurally-related glycoilpid antigens. Initial concentration of glycolipids was 100 ng. ST421 was used at a concentration of 10 μg/ml. A, IV^3 Galβ1→3[Fuc1→4]GlcNAcIII^3 FucnLc4 (Le^a /Le^x; structure 10 in Table III); B, V^4 III^4 Fuc2 Lc6 (dimeric Le^a; structure 11); C, IV^3 Galβ1→3[Fucα1→4]GlcNAcnLc4 (structure 8); D, III^4 FucLc4 (structure 1); E, IV^3 (Galβ1→3GlcNAcIII^3 FucnLc4 (structure 9); F, V^3 III^3 Fuc2 nLc6 (structure 7); G, IV^2 FucLc4 (structure 2); H, IV^3 Galβ1→3GlcNAcnLc4 (structure 4); I, IV^2 III^4 Fuc2 Lc4 (structure 3); J, nLc6 (structure 5); K, VI^2 FucnLc6 (type 2 H with nLc6 core; not shown in Table III); L, VI^2 V^3 Fuc2 nLc6 (Le^y with nLc6 core; not shown in Table III).
The solid-phase radioimmunoassay as described by Kannagi et al. (Cancer Res. 43:4997-5005, 1983) was used. […] Dimeric Le^x and various other structurally related GSLs were not reactive with ST421 (FIG. 7).

[8] = test system: anti-Le^a MAb; experiment: Reactivity of GSL with anti-Le^a MAb; format: binding
Experimental: as §1, §3

Substance: III^4 V^4 Fuc2 Lc6 [dimeric Le^a]
- reactivity with MAb ST-421 [1]: stained strongly

Substance: IV^2 FucLc4 [H type 1 chain]
- reactivity of MAb IMH2 with GSL (in words) [2]: did not react

Substance: VI^2 FucV^3 FucIII^3 FucnLc6 [Le^y /Le^x]
- reactivity with anti-Le^y MAb AH6 [3]: reacted with AH6
- reactivity of MAb IMH2 with GSL (in words) [2]: reacts strongly; also recorded: reacted equally well; also recorded: reacts
- reactivity with anti-Le^b MAbs [4]: not with anti-Le^b

Substance: nLc4
- reactivity of MAb IMH2 with GSL (in words) [2]: did not react

Substance: Lc4
- reactivity with MAb MNH-1 [5]: reacted strongly
- reactivity with MAb 1B2 [6]: did not react
- reactivity of MAb IMH2 with GSL (in words) [2]: did not react

Substance: IV^3 Galβ1→3[Fuc1→4]GlcNAcIII^3 FucnLc4 [Le^a /Le^x]
- reactivity with ST-421 [7]: strongest reactivity; also recorded: clear preference for them compared to extended Le^a or simple Le^a
- reactivity with anti-Le^a MAb [8]: reacted with anti-Le^a MAb
- reactivity of MAb IMH2 with GSL (in words) [2]: did not react
- reactivity of MAb IMH2 with GSL (in words) ([2]; listed as Le^a /Le^a): reacted weakly
- reactivity with MAb ST-421 [1]: reacted with anti-Le^a MAb as well as with MAb ST-421
- reactivity with MAb ST-421 ([1]; listed as Le^a /Le^a): react strongly; also recorded: reacted with anti-Le^a MAb as well as with MAb ST-421

Substance: III^4 FucLc6
- reactivity with MAb MNH-1 [5]: reacted with MAb MNH-1
- reactivity with MAb 1B2 [6]: not with anti-Le^a or 1B2

Substance: III^3 V^3 Fuc2 nLc6 [Dimeric Le^x]
- reactivity of MAb IMH2 with GSL (in words) [2]: reacted weakly

Substance: IV^2 FucnLc4 [H1]
- reactivity of MAb IMH2 with GSL (in words) [2]: did not react

Substance: VI^2 FucnLc6 [H2]
- reactivity of MAb IMH2 with GSL (in words) [2]: did not react

Substance: Lc6
- reactivity with MAb MNH-1 [5]: reacted with MAb MNH-1
- reactivity with MAb 1B2 [6]: not with anti-Le^a or 1B2
